± gives the expanded uncertainty stated by the source.
Tests used:
[1] = 101.33 kPa, Liquid
[2] = refractive index (Na D-line) (dimensionless); details: 101.33 kPa, Liquid, Standard Abbe refractometry
[3] = xn = mol fraction of the nth substance listed; details: 101 kPa, Liquid
[4] = excess molar enthalpy (molar enthalpy of mixing); xn = mol fraction of the nth substance listed; details: 101 kPa, Liquid, Flow calorimetry

CCCC[n+]1ccc(C)cc1.F[B-](F)(F)F [1-butyl-4-methylpyridinium tetrafluoroborate]
mass density ([1]; 298.15 K): 1183.49 ± 2.5 kg/m3 | mass density ([1]; 318.15 K): 1169.12 ± 2.4 kg/m3 | refractive index ([2]; 298.15 K): 1.4517 ± 0.0005 | refractive index ([2]; 318.15 K): 1.447 ± 0.0005

CCCC[n+]1ccc(C)cc1.F[B-](F)(F)F [1-butyl-4-methylpyridinium tetrafluoroborate] + O
mass density ([3]; 298.15 K, x1 = 0.0502): 1060.5 ± 1.2 kg/m3 | mass density ([3]; 298.15 K, x1 = 0.1042): 1094.8 ± 1.4 kg/m3 | mass density ([3]; 298.15 K, x1 = 0.1512): 1112.7 ± 1.5 kg/m3 | mass density ([3]; 298.15 K, x1 = 0.2006): 1126.1 ± 1.6 kg/m3 | mass density ([3]; 298.15 K, x1 = 0.2543): 1136.1 ± 1.6 kg/m3 | mass density ([3]; 298.15 K, x1 = 0.2948): 1142.4 ± 1.7 kg/m3 | mass density ([3]; 298.15 K, x1 = 0.4): 1154.1 ± 1.8 kg/m3 | mass density ([3]; 298.15 K, x1 = 0.4913): 1161.5 ± 1.8 kg/m3 | mass density ([3]; 298.15 K, x1 = 0.6014): 1168.3 ± 1.8 kg/m3 | mass density ([3]; 298.15 K, x1 = 0.7228): 1173.9 ± 1.9 kg/m3 | mass density ([3]; 298.15 K, x1 = 0.7493): 1175.1 ± 1.9 kg/m3 | mass density ([3]; 298.15 K, x1 = 0.783): 1176.4 ± 1.9 kg/m3 | mass density ([3]; 298.15 K, x1 = 0.8449): 1178.7 ± 1.9 kg/m3 | mass density ([3]; 298.15 K, x1 = 0.8731): 1179.8 ± 1.9 kg/m3 | mass density ([3]; 298.15 K, x1 = 0.9504): 1182.1 ± 1.9 kg/m3 | mass density ([3]; 318.15 K, x1 = 0.0327): 1033 ± 1 kg/m3 | mass density ([3]; 318.15 K, x1 = 0.0994): 1080 ± 1.3 kg/m3 | mass density ([3]; 318.15 K, x1 = 0.1505): 1098.7 ± 1.4 kg/m3 | mass density ([3]; 318.15 K, x1 = 0.1989): 1111.3 ± 1.5 kg/m3 | mass density ([3]; 318.15 K, x1 = 0.236): 1118.6 ± 1.5 kg/m3 | mass density ([3]; 318.15 K, x1 = 0.2921): 1127.6 ± 1.6 kg/m3 | mass density ([3]; 318.15 K, x1 = 0.3237): 1131.9 ± 1.6 kg/m3 | mass density ([3]; 318.15 K, x1 = 0.4169): 1141.3 ± 1.7 kg/m3 | mass density ([3]; 318.15 K, x1 = 0.4841): 1146.6 ± 1.7 kg/m3 | mass density ([3]; 318.15 K, x1 = 0.6083): 1154.2 ± 1.8 kg/m3 | mass density ([3]; 318.15 K, x1 = 0.6715): 1157.5 ± 1.8 kg/m3 | mass density ([3]; 318.15 K, x1 = 0.7125): 1159.2 ± 1.8 kg/m3 | mass density ([3]; 318.15 K, x1 = 0.7299): 1160 ± 1.8 kg/m3 | mass density ([3]; 318.15 K, x1 = 0.8124): 1163 ± 1.8 kg/m3 | mass density ([3]; 318.15 K, x1 = 0.8565): 1164.7 ± 1.8 kg/m3 | mass density ([3]; 318.15 K, x1 = 0.8888): 1165.8 ± 1.8 kg/m3 | excess molar enthalpy ([4]; 298.15 K, x1 = 0.0072): 0.104 ± 0.006 kJ/mol | excess molar enthalpy ([4]; 298.15 K, x1 = 0.0145): 0.198 ± 0.007 kJ/mol | excess molar enthalpy ([4]; 298.15 K, x1 = 0.0215): 0.284 ± 0.008 kJ/mol | excess molar enthalpy ([4]; 298.15 K, x1 = 0.0303): 0.38 ± 0.009 kJ/mol | excess molar enthalpy ([4]; 298.15 K, x1 = 0.0406): 0.491 ± 0.011 kJ/mol | excess molar enthalpy ([4]; 298.15 K, x1 = 0.0526): 0.613 ± 0.014 kJ/mol | excess molar enthalpy ([4]; 298.15 K, x1 = 0.0659): 0.74 ± 0.016 kJ/mol | excess molar enthalpy ([4]; 298.15 K, x1 = 0.0805): 0.876 ± 0.019 kJ/mol | excess molar enthalpy ([4]; 298.15 K, x1 = 0.0963): 1.01 ± 0.022 kJ/mol | excess molar enthalpy ([4]; 298.15 K, x1 = 0.1144): 1.16 ± 0.025 kJ/mol | excess molar enthalpy ([4]; 298.15 K, x1 = 0.1563): 1.46 ± 0.031 kJ/mol | excess molar enthalpy ([4]; 298.15 K, x1 = 0.1863): 1.59 ± 0.034 kJ/mol | excess molar enthalpy ([4]; 298.15 K, x1 = 0.2196): 1.7 ± 0.036 kJ/mol | excess molar enthalpy ([4]; 298.15 K, x1 = 0.2577): 1.77 ± 0.038 kJ/mol | excess molar enthalpy ([4]; 298.15 K, x1 = 0.2972): 1.81 ± 0.039 kJ/mol | excess molar enthalpy ([4]; 298.15 K, x1 = 0.3449): 1.81 ± 0.039 kJ/mol | excess molar enthalpy ([4]; 298.15 K, x1 = 0.3974): 1.76 ± 0.038 kJ/mol | excess molar enthalpy ([4]; 298.15 K, x1 = 0.4857): 1.59 ± 0.034 kJ/mol | excess molar enthalpy ([4]; 298.15 K, x1 = 0.5954): 1.34 ± 0.029 kJ/mol | excess molar enthalpy ([4]; 298.15 K, x1 = 0.7282): 0.962 ± 0.021 kJ/mol | excess molar enthalpy ([4]; 298.15 K, x1 = 0.8706): 0.486 ± 0.011 kJ/mol | excess molar enthalpy ([4]; 318.15 K, x1 = 0.0097): 0.188 ± 0.008 kJ/mol | excess molar enthalpy ([4]; 318.16 K, x1 = 0.0226): 0.392 ± 0.01 kJ/mol | excess molar enthalpy ([4]; 318.17 K, x1 = 0.0382): 0.606 ± 0.014 kJ/mol | excess molar enthalpy ([4]; 318.18 K, x1 = 0.0565): 0.825 ± 0.018 kJ/mol | excess molar enthalpy ([4]; 318.19 K, x1 = 0.0755): 1.04 ± 0.023 kJ/mol | excess molar enthalpy ([4]; 318.2 K, x1 = 0.0949): 1.23 ± 0.027 kJ/mol | excess molar enthalpy ([4]; 318.21 K, x1 = 0.1132): 1.4 ± 0.03 kJ/mol | excess molar enthalpy ([4]; 318.22 K, x1 = 0.1187): 1.51 ± 0.033 kJ/mol | excess molar enthalpy ([4]; 318.23 K, x1 = 0.1414): 1.68 ± 0.036 kJ/mol | excess molar enthalpy ([4]; 318.24 K, x1 = 0.1695): 1.84 ± 0.039 kJ/mol | excess molar enthalpy ([4]; 318.25 K, x1 = 0.2008): 1.97 ± 0.042 kJ/mol | excess molar enthalpy ([4]; 318.26 K, x1 = 0.2346): 2.09 ± 0.045 kJ/mol | excess molar enthalpy ([4]; 318.27 K, x1 = 0.2746): 2.19 ± 0.047 kJ/mol | excess molar enthalpy ([4]; 318.28 K, x1 = 0.3253): 2.25 ± 0.048 kJ/mol | excess molar enthalpy ([4]; 318.29 K, x1 = 0.383): 2.23 ± 0.048 kJ/mol | excess molar enthalpy ([4]; 318.3 K, x1 = 0.441): 2.16 ± 0.046 kJ/mol | excess molar enthalpy ([4]; 318.31 K, x1 = 0.5071): 2.03 ± 0.043 kJ/mol | excess molar enthalpy ([4]; 318.32 K, x1 = 0.5961): 1.76 ± 0.038 kJ/mol | excess molar enthalpy ([4]; 318.33 K, x1 = 0.6778): 1.42 ± 0.03 kJ/mol | excess molar enthalpy ([4]; 318.34 K, x1 = 0.7866): 0.988 ± 0.021 kJ/mol | excess molar enthalpy ([4]; 318.35 K, x1 = 0.9058): 0.428 ± 0.01 kJ/mol

From the NIST ThermoML archive (doi:10.1016/j.jct.2008.02.019)
